# Measurements from patent US20240051952A1, “HMOX1 INDUCERS” (Mitobridge Inc., priority 2019, published 2024).
# Columns and labels:
# [1] = tested on: HMOX1 gene; test: HMOX1 mRNA expression in HepG2 cells (Nanostring); type: cell-based, human; details: 24 hours treatment
# Protocol: Example 147. HMOX1 Inducers of the Invention Strongly Increase In Vitro Expression of HMOX1
# RNA Isolation and Quantification of Gene Expression
# HepG2 cells were seeded at 250 k/well in 12-well tissue culture plates coated with collagen (collagen I, rat tail (thin plate coating); ENZO Life Sciences) for approximately 24 hours. The seeded cells were then treated with dose titration of the compound of Example 17 or dimethyl fumarate (DMF) (a Nrf2 activator; Fisher Scientific) via media change, with biological triplicates performed for each treatment. After approximately 24 hours of treatment, cells were visually inspected to confirm that no toxicity occurred with compound treatment. The treated cells were washed with PBS, aspirated, parafilmed and frozen at −80° C. prior to RNA isolation. RNA was isolated using Machery-Nagel isolation kit (NucleoSpin® RNA: catalog 740955.250) and then quantitated using ThermoFisher Nanodrop.
# RNA was diluted for Nanostring gene expression analysis. […]
# The relative mRNA levels of the HMOX1 gene in HepG2 cells treated with the compound of Example 17 or DMF were measured according to the methods described above. […]
# [2] = tested on: Heme Oxygenase 1 (HO1); test: PD study, HMOX1 protein levels in mouse plasma and liver (ELISA); type: in vivo; details: HMOX1 protein fold induction vs time-matched vehicle, 50 mpk oral
# Protocol: 9-10 week old male C57BL/6 mice were dosed orally with 50 mg/kg of vehicle or compound formulated in 5% w/v tween 80 and 0.5% methyl cellulose. At indicated time points (3 and 6 hours or or 4 and 8 hours post-dosing as shown in the results below), whole blood was collected, animal was sacrificed and liver was collected. Blood samples were transferred to vials containing 4 μL of 10% w/v EDTA, centrifuged at 6000 rpm for 8 in below 10° C. to obtain plasma. Samples were frozen and later processed for HMOX1 protein levels as indicated below:
# HMOX 1 Protein Levels: Mouse Liver
# Preparation of Homogenization/Lysis Buffer
# The homogenization buffer was prepared according Table A.
# Immediately prior to use, add DTT (ThermoScientific #R0861) to a final concentration of 5 mM and 100×Halt Protease & Phosphatase Inhibitor Cocktail (ThermoScientific #78440) to a final concentration of 1×.
# Preparation of Mouse Liver Samples
# Liver samples were crushed by mortar and pestle under freezing conditions. Pulverized tissue was transferred into pre-chilled bead ruptor OMNI tubes (OMNI International, Cat #19-628). 1 mL of homogenization buffer (+DTT and HALT) was added to pulverized tissue and tubes were placed on ice. Samples were loaded and run through bead ruptor at speed 5.64 m/s, for two 20 sec cycles with 10 sec dwell between cycles and samples were immediately returned to ice. All material was transferred to a new chilled 2 mL Eppendorf tube. Samples were centrifuged for 5 minutes at 2,000 rpm at 4° C. Supernatant was transferred to a fresh chilled 1.7 mL Eppendorf tube. Samples were centrifuged for 5 minutes at 2,000 rpm at 4° C. The supernatant, consisting of cytosol and microsomes, was transferred to a fresh chilled 1.7 mL Eppendorf tube. Samples were stored at −80° C. Microsome samples were quantitated using Pierce 660 Assay (ThermoFisher Cat #22660) with pre-diluted BSA standards (ThermoFisher Cat #23208) ranging from 125-2000 μg/mL. Each sample was diluted to 10ng/ul for an ELISA input of 0.5ug in 50ul.
# Preparation of Assay Reagents
# All assay reagents were provided in the Heme Oxygenase 1 (HO1) Mouse SimpleStep ELISA Kit (Abcam #ab204524). Prior to use, all reagents were equilibrated to room temperature. 1×Wash Buffer PT was prepared by diluting 10×Wash Buffer PT 1:10 with deionized water. Antibody cocktail was prepared by diluting the 10×Capture Antibody and 10×Detector Antibody to 1×in Antibody Diluent 5BI. Mouse heme oxygenase 1 protein standard was reconstituted using 500ul homogenization buffer (Table A), mixed and held at room temperature for 10 minutes prior to dilution. An eight point standard curve was generated by diluting the Stock Standard 1:2 for standard curve ranging from 10,000-156.3 pg/mL.
# Heme Oxygenase 1 (HO1) Mouse SimpleStep ELISA
# 50ul of all samples and standards were added to appropriate wells in duplicate. 50ul of 1×Antibody Cocktail was added to each well. The plate was sealed with provided seal and incubated at room temperature on a plate shaker at 400 rpm. After one hour incubation, the Antibody Cocktail was aspirated and the wells were washed three times with 350ul 1×Wash Buffer PT, aspirating completely between each step. After the last wash was aspirated dry, 100ul TMB Substrate was added to each well and the plate was incubated in the dark at room temperature for 10 minutes on a plate shaker at 400 rpm. After the 10 minute incubation, 100ul of Stop Solution was added to each well. Plate was shaken at 400 rpm for 1 minute to mix. Softmax Pro 7.0.3 was used to read OD at 450 nm as well as for analysis.
# Heme Oxygenase 1 Protein Levels in Mouse Plasma
# All assay reagents were provided in the Heme Oxygenase 1 (HO1) Mouse SimpleStep ELISA Kit (Abcam #ab204524). 1×Wash Buffer PT was prepared by diluting 10×Wash Buffer PT 1:10 with deionized water. Antibody cocktail was prepared by diluting the 10×Capture Antibody and 10×Detector Antibody to 1×in Antibody Diluent 5BI. […]
smiles,measurement,setting,value
"Cn1c(Nc2nc3ccccc3o2)nc2cc(C(=O)NCCOCCO)ccc21 [Example 17, 2-(benzo[d]oxazol-2-ylamino)-N-(2-(2-hydroxyethoxy)ethyl)-1-methyl-1H-benzo[d]imidazole-5-carboxamide]","HMOX1 expression, 30 μM compound of Example 17 relative to 250 μM DMF",[1],4 times
same,HMOX1 expression compared with DMF,[1]; mRNA fold change vs DMSO,much more strongly than DMF
same,Liver Protein (4 h),"[2]; mouse liver, 4 hours (Study 702)",3.3x*
same,Liver Protein (8 h),"[2]; mouse liver, 8 hours (Study 702)",3.1x*
same,Plasma Protein (4 h),"[2]; mouse plasma, 4 hours (Study 702)",1.7x*
same,Plasma Protein (8 h),"[2]; mouse plasma, 8 hours (Study 702)",1.1x*
